Calls of active or inactive are those of the source. No cut-off for these calls is given here.
Experiments:
[1] = target: T1, Serine/threonine-protein kinase ULK3 (Homo sapiens) (UniProt Q6PHR2); assay: Inhibition of ULK3 Lys1 labeling site in human Huh-7 cell lysate at 1 uM by KiNativ Profiling analysis relative to control; type: subcellular
T1 sequence (whole entry): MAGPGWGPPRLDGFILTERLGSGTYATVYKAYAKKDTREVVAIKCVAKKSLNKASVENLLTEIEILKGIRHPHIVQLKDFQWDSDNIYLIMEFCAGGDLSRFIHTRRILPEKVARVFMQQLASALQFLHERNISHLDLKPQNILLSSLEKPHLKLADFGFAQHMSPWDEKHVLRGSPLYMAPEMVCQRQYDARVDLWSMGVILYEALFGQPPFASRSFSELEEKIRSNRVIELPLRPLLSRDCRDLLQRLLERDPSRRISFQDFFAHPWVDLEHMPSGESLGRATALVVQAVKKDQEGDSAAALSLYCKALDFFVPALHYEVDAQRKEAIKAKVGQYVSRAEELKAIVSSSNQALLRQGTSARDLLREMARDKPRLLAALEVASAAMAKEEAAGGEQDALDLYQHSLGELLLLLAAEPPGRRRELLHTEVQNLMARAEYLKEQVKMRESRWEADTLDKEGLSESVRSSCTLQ

[2] = target: T2, PAN2-PAN3 deadenylation complex subunit PAN3 (Homo sapiens) (UniProt Q58A45); assay: Inhibition of PAN3 Protein Kinase Domain labeling site in human Huh-7 cell lysate at 1 uM by KiNativ Profiling analysis relative to control; type: subcellular
T2 sequence (whole entry): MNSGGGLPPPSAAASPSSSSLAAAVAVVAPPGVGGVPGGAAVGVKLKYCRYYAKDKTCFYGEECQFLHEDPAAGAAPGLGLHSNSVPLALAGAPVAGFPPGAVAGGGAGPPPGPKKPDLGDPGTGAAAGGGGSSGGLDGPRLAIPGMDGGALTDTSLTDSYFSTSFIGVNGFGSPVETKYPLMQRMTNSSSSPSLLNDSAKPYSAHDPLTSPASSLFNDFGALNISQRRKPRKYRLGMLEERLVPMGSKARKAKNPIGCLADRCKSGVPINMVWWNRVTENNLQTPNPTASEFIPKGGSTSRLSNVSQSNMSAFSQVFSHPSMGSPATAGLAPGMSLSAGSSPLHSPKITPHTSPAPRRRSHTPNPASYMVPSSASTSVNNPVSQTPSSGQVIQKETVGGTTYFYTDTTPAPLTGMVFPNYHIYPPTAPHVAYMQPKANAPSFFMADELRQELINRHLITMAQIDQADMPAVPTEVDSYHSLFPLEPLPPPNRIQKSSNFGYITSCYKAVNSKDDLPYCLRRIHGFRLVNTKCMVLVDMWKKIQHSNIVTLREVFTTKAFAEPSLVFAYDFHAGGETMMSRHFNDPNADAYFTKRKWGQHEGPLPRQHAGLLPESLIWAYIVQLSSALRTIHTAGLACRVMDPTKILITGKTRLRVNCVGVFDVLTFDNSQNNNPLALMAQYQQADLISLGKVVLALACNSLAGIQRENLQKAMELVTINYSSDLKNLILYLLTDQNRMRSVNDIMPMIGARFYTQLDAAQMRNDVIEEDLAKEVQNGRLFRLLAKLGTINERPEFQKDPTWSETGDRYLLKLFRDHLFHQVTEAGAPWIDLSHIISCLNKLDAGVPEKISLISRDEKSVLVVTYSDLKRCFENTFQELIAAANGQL

[3] = target: Serine/threonine-protein kinase 16 (Homo sapiens) (UniProt O75716); assay: Inhibition of MPSK1 Lys2 labeling site in human A-375 cells at 5 uM by KiNativ Profiling analysis relative to control; type: cell-based
Chain of Serine/threonine-protein kinase 16 (Homo sapiens) (O75716 whole entry): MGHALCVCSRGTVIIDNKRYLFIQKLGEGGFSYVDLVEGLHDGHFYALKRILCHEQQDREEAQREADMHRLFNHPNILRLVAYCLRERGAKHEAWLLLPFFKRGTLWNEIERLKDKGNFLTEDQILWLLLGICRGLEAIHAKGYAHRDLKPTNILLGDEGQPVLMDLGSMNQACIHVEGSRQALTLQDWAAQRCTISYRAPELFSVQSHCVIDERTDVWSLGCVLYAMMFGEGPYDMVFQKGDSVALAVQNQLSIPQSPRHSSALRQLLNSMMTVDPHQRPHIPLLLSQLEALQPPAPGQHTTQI

[4] = target: T3, Serine/threonine-protein kinase TAO3 (Homo sapiens) (UniProt Q9H2K8); assay: Inhibition of TAOK3 (unknown origin) at 1 uM by Ambit Kinomescan binding assay relative to control; values are per cent of control
T3 sequence (whole entry): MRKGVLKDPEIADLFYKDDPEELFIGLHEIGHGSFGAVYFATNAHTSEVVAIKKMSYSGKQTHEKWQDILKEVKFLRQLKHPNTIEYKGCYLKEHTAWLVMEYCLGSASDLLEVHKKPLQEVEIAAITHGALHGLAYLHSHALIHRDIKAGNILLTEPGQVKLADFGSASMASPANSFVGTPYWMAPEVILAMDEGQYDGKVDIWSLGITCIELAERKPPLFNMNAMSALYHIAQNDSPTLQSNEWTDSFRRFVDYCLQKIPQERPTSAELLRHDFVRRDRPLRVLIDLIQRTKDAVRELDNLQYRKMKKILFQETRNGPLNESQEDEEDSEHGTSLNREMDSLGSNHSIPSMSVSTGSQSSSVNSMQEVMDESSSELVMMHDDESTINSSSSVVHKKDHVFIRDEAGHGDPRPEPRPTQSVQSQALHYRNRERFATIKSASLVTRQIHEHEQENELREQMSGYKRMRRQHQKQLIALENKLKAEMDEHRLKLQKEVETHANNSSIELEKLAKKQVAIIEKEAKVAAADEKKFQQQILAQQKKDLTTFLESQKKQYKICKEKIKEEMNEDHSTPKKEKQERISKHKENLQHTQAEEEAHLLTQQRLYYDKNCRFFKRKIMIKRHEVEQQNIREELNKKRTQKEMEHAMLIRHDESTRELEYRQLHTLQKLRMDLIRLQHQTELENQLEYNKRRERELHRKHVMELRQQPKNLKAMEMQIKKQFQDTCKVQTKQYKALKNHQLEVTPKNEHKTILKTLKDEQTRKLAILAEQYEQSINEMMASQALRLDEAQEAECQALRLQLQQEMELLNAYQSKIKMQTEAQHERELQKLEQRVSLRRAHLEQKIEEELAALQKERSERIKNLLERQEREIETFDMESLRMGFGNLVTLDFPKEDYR

[5] = target: Calcium/calmodulin-dependent protein kinase type IV (Homo sapiens) (UniProt Q16566); assay: Inhibition of CAMK4 (unknown origin) at 10 uM by Ambit Kinomescan binding assay
Chain of Calcium/calmodulin-dependent protein kinase type IV (Homo sapiens) (Q16566 whole entry): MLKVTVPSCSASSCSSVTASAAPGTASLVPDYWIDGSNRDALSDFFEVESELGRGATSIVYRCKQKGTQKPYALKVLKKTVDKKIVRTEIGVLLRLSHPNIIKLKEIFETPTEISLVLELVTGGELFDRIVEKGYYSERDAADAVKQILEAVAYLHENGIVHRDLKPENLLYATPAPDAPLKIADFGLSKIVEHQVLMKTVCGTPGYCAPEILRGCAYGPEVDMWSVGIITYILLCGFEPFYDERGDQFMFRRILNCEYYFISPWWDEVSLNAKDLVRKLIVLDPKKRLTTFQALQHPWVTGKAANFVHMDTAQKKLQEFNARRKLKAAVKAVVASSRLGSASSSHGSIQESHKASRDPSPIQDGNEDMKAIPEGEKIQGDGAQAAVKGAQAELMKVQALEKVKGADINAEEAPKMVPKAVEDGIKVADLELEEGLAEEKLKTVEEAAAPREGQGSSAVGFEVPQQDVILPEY

[6] = target: Focal adhesion kinase 1 (Homo sapiens) (UniProt Q05397); assay: Inhibition of FAK K1 labeling site in human Huh-7 cells at 1 uM by KiNativ Profiling analysis relative to control; type: cell-based
Chain of Focal adhesion kinase 1 (Homo sapiens) (Q05397 2-1052 limits assumed): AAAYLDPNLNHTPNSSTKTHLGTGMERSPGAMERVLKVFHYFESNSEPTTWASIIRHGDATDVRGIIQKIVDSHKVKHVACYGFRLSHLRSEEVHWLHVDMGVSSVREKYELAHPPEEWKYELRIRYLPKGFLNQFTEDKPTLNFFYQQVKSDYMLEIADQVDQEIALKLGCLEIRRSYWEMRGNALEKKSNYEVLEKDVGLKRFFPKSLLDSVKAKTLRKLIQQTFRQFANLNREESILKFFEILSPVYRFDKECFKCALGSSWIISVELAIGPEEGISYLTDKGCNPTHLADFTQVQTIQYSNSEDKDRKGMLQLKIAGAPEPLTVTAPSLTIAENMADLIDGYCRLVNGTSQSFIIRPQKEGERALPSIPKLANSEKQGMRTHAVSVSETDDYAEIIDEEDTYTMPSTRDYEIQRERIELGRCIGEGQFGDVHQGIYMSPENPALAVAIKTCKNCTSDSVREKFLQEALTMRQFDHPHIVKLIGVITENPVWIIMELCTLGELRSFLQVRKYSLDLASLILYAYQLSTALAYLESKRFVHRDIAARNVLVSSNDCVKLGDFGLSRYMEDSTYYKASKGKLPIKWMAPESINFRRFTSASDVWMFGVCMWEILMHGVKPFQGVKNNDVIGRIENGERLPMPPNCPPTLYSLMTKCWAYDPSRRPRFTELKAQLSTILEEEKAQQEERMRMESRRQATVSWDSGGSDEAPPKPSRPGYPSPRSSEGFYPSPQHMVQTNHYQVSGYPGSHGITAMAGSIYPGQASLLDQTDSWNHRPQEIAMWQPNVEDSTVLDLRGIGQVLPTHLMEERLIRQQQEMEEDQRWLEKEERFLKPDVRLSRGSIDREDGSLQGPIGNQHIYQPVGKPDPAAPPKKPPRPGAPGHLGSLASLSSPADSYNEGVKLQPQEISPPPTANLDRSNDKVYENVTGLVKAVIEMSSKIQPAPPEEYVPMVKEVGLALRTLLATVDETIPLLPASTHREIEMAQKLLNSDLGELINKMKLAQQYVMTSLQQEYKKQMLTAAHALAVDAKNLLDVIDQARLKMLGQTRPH

[7] = target: Citron Rho-interacting kinase (Homo sapiens) (UniProt O14578); assay: Inhibition of CIT (unknown origin) at 10 uM by Ambit Kinomescan binding assay relative to control; values are per cent of control
Chain of Citron Rho-interacting kinase (Homo sapiens) (O14578 whole entry): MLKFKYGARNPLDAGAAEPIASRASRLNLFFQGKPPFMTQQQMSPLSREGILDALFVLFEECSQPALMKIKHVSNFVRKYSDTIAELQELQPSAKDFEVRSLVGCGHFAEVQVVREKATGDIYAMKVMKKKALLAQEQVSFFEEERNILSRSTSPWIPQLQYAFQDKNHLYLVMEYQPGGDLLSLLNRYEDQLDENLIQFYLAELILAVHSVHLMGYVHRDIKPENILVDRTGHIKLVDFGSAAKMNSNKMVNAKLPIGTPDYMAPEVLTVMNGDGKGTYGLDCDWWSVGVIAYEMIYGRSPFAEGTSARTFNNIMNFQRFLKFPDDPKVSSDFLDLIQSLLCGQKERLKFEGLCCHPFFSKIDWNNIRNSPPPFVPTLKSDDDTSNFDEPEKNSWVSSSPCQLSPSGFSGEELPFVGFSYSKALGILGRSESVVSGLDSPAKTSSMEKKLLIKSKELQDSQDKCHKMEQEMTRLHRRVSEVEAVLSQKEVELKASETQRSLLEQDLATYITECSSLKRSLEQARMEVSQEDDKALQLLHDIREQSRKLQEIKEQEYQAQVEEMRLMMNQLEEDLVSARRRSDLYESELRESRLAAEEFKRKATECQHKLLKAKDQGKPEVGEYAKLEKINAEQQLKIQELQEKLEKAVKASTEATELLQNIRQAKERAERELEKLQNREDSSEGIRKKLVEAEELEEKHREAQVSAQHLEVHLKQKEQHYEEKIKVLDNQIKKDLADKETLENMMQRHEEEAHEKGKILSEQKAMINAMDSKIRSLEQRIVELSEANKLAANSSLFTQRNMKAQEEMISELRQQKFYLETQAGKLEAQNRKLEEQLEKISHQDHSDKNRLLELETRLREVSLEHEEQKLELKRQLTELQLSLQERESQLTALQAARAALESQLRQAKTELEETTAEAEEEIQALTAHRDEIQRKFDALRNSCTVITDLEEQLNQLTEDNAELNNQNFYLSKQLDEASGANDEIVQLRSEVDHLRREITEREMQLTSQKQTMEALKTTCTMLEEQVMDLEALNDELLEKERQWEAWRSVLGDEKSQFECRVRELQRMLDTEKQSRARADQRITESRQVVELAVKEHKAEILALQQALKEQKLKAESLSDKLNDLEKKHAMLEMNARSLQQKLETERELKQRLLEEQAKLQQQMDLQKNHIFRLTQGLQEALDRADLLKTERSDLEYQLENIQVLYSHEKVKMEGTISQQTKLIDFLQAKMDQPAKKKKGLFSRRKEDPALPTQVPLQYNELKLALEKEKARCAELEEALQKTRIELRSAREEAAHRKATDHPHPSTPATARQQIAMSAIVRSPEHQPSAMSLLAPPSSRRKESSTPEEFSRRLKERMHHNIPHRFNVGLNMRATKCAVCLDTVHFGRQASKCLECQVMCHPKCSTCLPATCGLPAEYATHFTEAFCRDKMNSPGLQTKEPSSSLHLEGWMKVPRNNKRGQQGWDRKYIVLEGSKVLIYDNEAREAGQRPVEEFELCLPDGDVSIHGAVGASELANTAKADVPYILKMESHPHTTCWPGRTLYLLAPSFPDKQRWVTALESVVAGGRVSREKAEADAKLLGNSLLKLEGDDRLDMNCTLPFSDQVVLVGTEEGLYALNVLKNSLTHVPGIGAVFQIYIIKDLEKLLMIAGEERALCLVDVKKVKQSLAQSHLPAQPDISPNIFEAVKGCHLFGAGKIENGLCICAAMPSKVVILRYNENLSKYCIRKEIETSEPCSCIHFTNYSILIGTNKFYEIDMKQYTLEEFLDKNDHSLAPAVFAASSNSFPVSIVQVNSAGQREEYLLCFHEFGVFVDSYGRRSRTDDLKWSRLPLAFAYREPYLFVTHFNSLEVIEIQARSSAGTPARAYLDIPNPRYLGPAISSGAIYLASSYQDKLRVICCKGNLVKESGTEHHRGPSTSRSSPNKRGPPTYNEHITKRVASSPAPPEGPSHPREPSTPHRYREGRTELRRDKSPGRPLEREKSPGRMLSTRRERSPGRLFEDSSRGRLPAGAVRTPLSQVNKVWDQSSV

With CNc1cc(Oc2cc(C(=O)Nc3cc(N4CCN(C)CC4)cc(C(F)(F)F)c3)ccc2C)ncn1 the inhibition [1] was -5.1% and the inhibition [2] was -2.9%.

CCN1CCN(Cc2ccc(NC(=O)c3ccc(C)c(/C=C/c4cnc5[nH]ccc5c4OC)c3)cc2C(F)(F)F)CC1 was tested, and the inhibition [3] was 41% and the percent of control [4] was 0.75%.

With CCN1CCN(Cc2ccc(NC(=O)c3ccc(C)c(Oc4ccnc5[nH]ccc45)c3)cc2C(F)(F)F)CC1 the inhibition [5] was “inactive”, the inhibition [6] was 32% and the percent of control [7] was 0.1%.

From ChEMBL document CHEMBL5696442, “Discovery of type II inhibitors of TGFβ-activated kinase 1 (TAK1) and mitogen-activated protein kinase kinase kinase kinase 2 (MAP4K2)” (J Med Chem, 2015)
